Laboratory results reported in PMC5994430, “Mitochondrial Delivery of Phenol Substructure Triggers Mitochondrial Depolarization and Apoptosis of Cancer Cells” (Frontiers in Pharmacology, 2018).

Key:
Type in all cases: cell-based, Human
[1] = test system: PGC-1α; test: Immunoblot of nuclear PGC-1α in A549 cells; settings: 0.1 μM, 4 h
[2] = test system: mitochondrial ROS; test: Mitochondrial ROS (MitoSOX Red) in BEAS-2B cells; settings: 0.1 μM, 4 h
Protocol: The amount of ROS in mitochondrial extracts was measured fluorimetrically by incubating cell suspension at 37°C for 10 min with 10 μM of MitoSOX Red probe (Invitrogen Life Technologies), as per manufacturer’s instructions. Results were expressed as nmoles/mg mitochondrial proteins, using a calibration curve previously set with serial dilution of H2O2.
[t] Continuedof three experiments with similar results. (D) Confocal analysis of mitochondrial staining with MitoTracker® Green FM. Magnification: 60 × objective (0.52 numerical aperture); 10 × ocular lens. Bar: 10 μM. The micrographs are representative of three experiments with similar results. (E,F) The electron transport was measured spectrophotometrically in duplicates. ATP levels in mitochondrial extracts was measured by a chemiluminescence-based assay, in duplicates. Data are means ± SD (n = 3). For both panels: ^∗p < 0.001 vs. A549 ctrl cells; °p < 0.001 for BEAS-2B cells vs. the corresponding condition in A549 cells. (G,H) ROS amount in mitochondrial extracts and mitochondrial damage were measured fluorimetrically, in duplicates. Data are means ± SD (n = 3). […] There were no statistically significant differences between untreated (ctrl) and compound 1/compound 2-treated BEAS-2B cells for all the parameters analyzed in this figure.

[3] = test system: A549 cells; test: Mitochondrial mass (MitoTracker Green staining); settings: 0.1 μM, 4 h
Protocol: The amount of proteins in mitochondrial extracts, normalized to the total amount of cellular proteins, was considered an index of mitochondrial mass ([Jean et al., 2015]). Mitochondria biogenesis was evaluated by measuring the expressions of subunit I of COX-I, which is encoded by mitochondrial DNA, and of the SDH-A of complex II, which is encoded by nuclear DNA, using the MitoBiogenesis^TM In-Cell ELISA Kit (Abcam), following the manufacturer’s instructions. The unit (U) of each protein/mg mitochondrial proteins were calculated. Results were expressed as COX-1/SDH-A ratio.
0.5 × 10^5 cells were grown on sterile glass coverslips. […] The samples were analyzed with an Olympus FV300 laser scanning confocal microscope equipped with a Blue Argon (488 nm) laser, a Green Helium Neon (543 nm) laser, and FluoView 300 software (Olympus Biosystems, Hamburg, Germany). […]
[t] […] (E,F) The electron transport was measured spectrophotometrically in duplicates. ATP levels in mitochondrial extracts was measured by a chemiluminescence-based assay, in duplicates. […] (G,H) ROS amount in mitochondrial extracts and mitochondrial damage were measured fluorimetrically, in duplicates. […] There were no statistically significant differences between untreated (ctrl) and compound 1/compound 2-treated BEAS-2B cells for all the parameters analyzed in this figure.

[4] = test system: caspase 9; test: Caspase 9 activity in BEAS-2B cell lysates; settings: 0.1 μM, 24 h
Protocol: (§1) The activity of caspase 9 and 3 was measured by incubating 20 μg cell lysates with the respective fluorogenic substrates Ac-LEHD-AMC (LEHD-AMC) or DEVD-AMC (DEVD-AMC), as reported ([Pinzón-Daza et al., 2012]). Results were expressed as nmoles AMC/mg protein.
(§2) FIGURE 7 Effects of phenol TPP-derivatives on mitochondria-dependent apoptosis. A549 and BEAS-2B cells were incubated 24 h in fresh medium (ctrl) or in medium containing 0.1 μM of 1 or 2. (A,B) The activity of caspase 9 and 3 was measured fluorimetrically, in duplicates. Data are means ± SD (n = 3). For both panels: ^∗p < 0.001 vs. A549 ctrl cells; °p < 0.001 for BEAS-2B cells vs. the corresponding condition in A549 cells. (C,D) Cell cycle distribution, measured in duplicates. Data are means ± SD (n = 3). For both panels: ^∗p < 0.001 vs. A549 ctrl cells: °p < 0.001 for BEAS-2B cells vs. the corresponding condition in A549 cells. (E) Bright field microscope analysis of cells. Magnification: 60 × objective (0.52 numerical aperture); 10 × ocular lens. Bar: 20 μM. The micrographs are representative of three experiments with similar results.

[5] = test system: caspase 9; test: Caspase 9 activity in A549 cell lysates; settings: 0.1 μM, 24 h
Protocol: as §1, §2

[6] = test system: BEAS-2B cells; test: Extracellular LDH release; settings: 0.1, 1 or 10 μM, 24 h
Protocol: (§3) The extracellular release of LDH, considered an index of cell damage and necrosis, was measured spectrophotometrically, as reported ([Riganti et al., 2013b]). The extracellular medium was centrifuged at 12,000 × g for 15 min to pellet cellular debris, the cells were washed with fresh medium, detached with 0.01% trypsin/EDTA, re-suspended in 0.2 ml of 82.3 mM triethanolamine phosphate-HCl (pH 7.6), and sonicated on ice with two 10-sec bursts. LDH activity was measured in the extracellular medium and in the cell lysate: 50 μl of extracellular medium or 5 μl of cell lysate were incubated at 37°C with 5 mM NADH. The reaction was started by adding 20 mM pyruvic acid and was monitored for 6 min, measuring absorbance at 340 nm using a Synergy HT Multi-Detection Microplate Reader (Bio-Tek Instruments, Winoosky, MT, United States). The reaction kinetics were linear throughout the time of measurement. Both intracellular and extracellular enzyme activities were expressed as μmol NADH oxidized/min/dish. The results were expressed as percentage of extracellular LDH versus total (intracellular plus extracellular) LDH. Cell viability was measured by the neutral red staining method, as previously reported ([Riganti et al., 2015b]). The absorbance of untreated cells was considered as 100% viability; the results were expressed as percentage of viable cells versus untreated cells. IC50 was calculated with the CompuSyn software^1.
(§4) Supplementary Figure 3. Cytotoxic effects of compound 15 and 16. A549 and BEAS-2B cells were grown in fresh medium (0) or incubated with 0.1, 1 or 10 µM of 15 and 16 for 24 h (panel A) or 72 h (panel B). A. The release of LDH was measured spectrophotometrically in duplicates. Data are means ± SD (n=3). B. Cell viability was measured spectrophotometrically in quadruplicates. Data are […]
(§5) (1 picture or pasted object on this page, not shown here)

[7] = test system: A549 cells; test: Extracellular LDH release; settings: 0.1, 1 or 10 μM, 24 h
Protocol: as §3, §4, §5

SMILES	nuclear level of PGC-1α [1]	mitochondrial ROS [2]	mitochondrial mass [3]	activity of caspase 9 [4]	activity of caspase 9 [5]	release of LDH [6]	release of LDH [7]
CC(=O)Oc1ccc(C[P+](c2ccccc2)(c2ccccc2)c2ccccc2)cc1.[Br-] [Compound 1]	reduced	negligible modifications	reduced the mitochondrial mass	remained similar to untreated cells	strong activation		
Oc1ccc(C[P+](c2ccccc2)(c2ccccc2)c2ccccc2)cc1C(F)(F)F.[Br-] [Compound 16]						did not increase the release of LDH	did not increase the release of LDH
O=C(Oc1ccc(C[P+](c2ccccc2)(c2ccccc2)c2ccccc2)cc1C(F)(F)F)c1ccccc1.[Br-] [Compound 2]	reduced	negligible modifications	reduced the mitochondrial mass	remained similar to untreated cells	strong activation		
Oc1ccc(C[P+](c2ccccc2)(c2ccccc2)c2ccccc2)cc1.[Br-] [Compound 15]						did not increase the release of LDH	did not increase the release of LDH
